Assay results: PubChem BioAssay AID1508612

Experiment: passive permeability, PAMPA, ADME assay (AID 1508612)
Details: pH 7.4, 30.0 min, 50.0 µM

Going from `Nc1ccc(-c2cccc3c(=O)cc(N4CCOCC4)oc23)cc1` to `c1ccc2c(N3CCOCC3)nc(-c3ccncc3)nc2c1`, the Papp rises from 65.7 ×10⁻⁶ cm/s to over 1000 ×10⁻⁶ cm/s.

First: O=c1c2c([nH]c3ccc(Br)cc13)CCCC2
Second: CNC1(c2ccccc2Cl)CCCCC1=O (stereo not drawn)
The Papp of the first is lower: 62.4 ×10⁻⁶ cm/s for the first, over 1000 ×10⁻⁶ cm/s for the second.

Going from `Cc1ccc(-c2cc(C(=O)Nc3ccc(S(=O)(=O)N(C)Cc4nccs4)cc3)c3ccccc3n2)cc1C` to `Cc1ccc(-c2cc(C(=O)Nc3ccc(S(=O)(=O)N(C)C)cc3)c3ccccc3n2)cc1C`, the Papp rises from under 1 ×10⁻⁶ cm/s to 23 ×10⁻⁶ cm/s.

Going from `Nc1nc(Nc2ccc(S(N)(=O)=O)cc2)nn1C(=O)c1c(F)cccc1F` to `Cc1ccc(NC(=O)c2ccncc2NS(=O)(=O)c2ccc(C)cc2)cc1`, the Papp rises from 1.61 ×10⁻⁶ cm/s to 245 ×10⁻⁶ cm/s (150-fold).

Compared with `CCOc1ccc(N2CC(c3nc(-c4cc(OC)c(OC)c(OC)c4)no3)CC2=O)cc1` (stereo not drawn), `COc1cc2c(cc1-c1c(C)noc1C)ncc1[nH]c(=O)n([C@H](C)c3ccccn3)c12` is lower in Papp: over 1000 ×10⁻⁶ cm/s for the first, 858 ×10⁻⁶ cm/s for the second.

First: CCOc1ccc(NC(=O)CSC2=Nc3ccccc3C3=NC(CC(=O)NCc4cccs4)C(=O)N23)cc1 (stereo not drawn)
Second: O=C(Nc1ccc(Cl)cc1)C(NS(=O)(=O)c1cccs1)c1ccccc1 (stereo not drawn)
The Papp of the first is higher: 25 ×10⁻⁶ cm/s for the first, under 1 ×10⁻⁶ cm/s for the second.

`CCOC(=O)c1ccc(NC(=O)c2sc3nc4c(cc3c2N)N2CCC4CC2)cc1` and `Cc1ccc(-c2nc(C)c(C(=O)Nc3ccc4c(c3)C(=O)N3CCC[C@H]3C(=O)N4)s2)cc1` are within 1.5-fold of each other in Papp: 928 ×10⁻⁶ cm/s for the first, 976 ×10⁻⁶ cm/s for the second.

First: Fc1cc(Nc2nc(-c3ccncc3)nc3ccccc23)ccc1-c1ccnc(C(F)(F)F)c1
Second: Fc1ccc(Nc2nc(-c3ccncc3)nc3ccccc23)cc1F
The Papp of the first is 32-fold lower: 11.6 ×10⁻⁶ cm/s for the first, 376 ×10⁻⁶ cm/s for the second.

First: COc1ccc2nc(C)cc(Nc3ccc(Cl)c(Cl)c3)c2c1
Second: COc1ccnc(NC(=S)N2CCN(c3ccc(Cl)c(Cl)c3)CC2)c1
The Papp of the first is higher: over 1000 ×10⁻⁶ cm/s for the first, 601 ×10⁻⁶ cm/s for the second.

Going from `CC1CCCCN1c1ncnc(N)c1[N+](=O)[O-]` (stereo not drawn) to `NC(=O)C1CCN(c2nc(-c3ccc(N4CCCCC4)nc3)cs2)CC1`, the Papp falls from 269 ×10⁻⁶ cm/s to 23.9 ×10⁻⁶ cm/s (11-fold).

Compared with `CN(C)S(=O)(=O)c1cccc(NC(=O)c2ccc[nH]2)c1`, `CCCCc1ccc(NC(=O)c2ccc3c(c2)N(S(C)(=O)=O)CC3)cc1` is 3.9-fold higher in Papp: 179 ×10⁻⁶ cm/s for the first, 706 ×10⁻⁶ cm/s for the second.

Compared with `COc1ccc2[nH]c(S(=O)Cc3ncc(C)c(OC)c3C)nc2n1` (stereo not drawn), `COc1ccc(Nc2cc3c(nc2OC)nc(CCc2ccccc2)n3C)cn1` is higher in Papp: 183 ×10⁻⁶ cm/s for the first, over 1000 ×10⁻⁶ cm/s for the second.

Going from `COc1cc(-c2nc(Nc3ccc(F)c(F)c3)c3ccccc3n2)cc(OC)n1` to `COc1ncc(-c2ccc3c(Nc4cc(Oc5cc(F)cc(F)c5)cc(C(=O)O)c4)c(S(=O)(=O)NC4CC4)cnc3c2)c(OC)n1`, the Papp falls from 26.5 ×10⁻⁶ cm/s to under 1 ×10⁻⁶ cm/s.

`COc1ccccc1CNc1ccc(N2CCCCC2)cc1` and `O=C(Nc1ccc(N2CCN(C(=O)c3ccccc3F)CC2)cc1)c1cncc(Br)c1` cannot be ordered by Papp: over 1000 ×10⁻⁶ cm/s for the first, over 1000 ×10⁻⁶ cm/s for the second.

Going from `O=C(Nc1ccc(-c2nc3cc(NC(=O)c4ccccc4Cl)ccc3o2)cc1)c1ccccc1Cl` to `Cc1ccc(S(=O)(=O)Nc2cc(Cl)c(Cl)cc2C(=O)Nc2nc(-c3ccccc3)cs2)cc1`, the Papp falls from 176 ×10⁻⁶ cm/s to 5 ×10⁻⁶ cm/s (35-fold).

Going from `CNc1oc(-c2ccc(-c3ccccc3)cc2)nc1C#N` to `Cn1ccc2c(C(=O)NCc3cccnc3)nc(-c3ccccc3C#N)cc21`, the Papp falls from over 1000 ×10⁻⁶ cm/s to 732 ×10⁻⁶ cm/s.

Compared with `c1ccc(CNc2nc(NCc3ccccc3)c3ccccc3n2)cc1`, `CC(C)N(CCC(=O)c1ccc2ccccc2c1)Cc1ccccc1` is higher in Papp: 253 ×10⁻⁶ cm/s for the first, over 1000 ×10⁻⁶ cm/s for the second.

Compared with `CCn1cc(C(=O)O)c(=O)c2cnc(N3CCN(C(=S)Nc4ccccc4)CC3)nc21`, `Cc1ccnc(NC(=S)N2CCCC(Nc3cccc(C(F)(F)F)c3)C2)c1` (stereo not drawn) is higher in Papp: 12.1 ×10⁻⁶ cm/s for the first, over 1000 ×10⁻⁶ cm/s for the second.

Going from `CC(=O)c1ccc(N[S+](=O)([O-])c2cccc(NC(=O)c3[nH]c(C)c(C(C)=O)c3C)c2)cc1` to `Cc1ccc(-c2csc(NC(=O)c3ccncc3NS(=O)(=O)c3ccc(C)cc3)n2)cc1`, the Papp rises from under 1 ×10⁻⁶ cm/s to 530 ×10⁻⁶ cm/s.

First: Clc1ccc2ncc(-c3cccc(NC4CCNC4)n3)n2c1 (stereo not drawn)
Second: O=C(Nc1nnc(-c2cccs2)o1)c1ccc(Cl)cc1
The Papp of the first is 2.6-fold higher: 332 ×10⁻⁶ cm/s for the first, 126 ×10⁻⁶ cm/s for the second.

`COc1ccc(OC)c(-c2nc3c(C#N)c[nH]n3c2NC2CCCCC2)c1` and `COc1ccc(OC)c(N2C(=O)C(Cl)=C(N3CCCCC3)C2=O)c1` cannot be ordered by Papp: over 1000 ×10⁻⁶ cm/s for the first, over 1000 ×10⁻⁶ cm/s for the second.

`Clc1ccccc1-c1nccc(-n2ccnc2)n1` and `Fc1cnc(-c2ccccc2C(F)F)nc1NCC1CCN(c2cnccn2)CC1` cannot be ordered by Papp: over 1000 ×10⁻⁶ cm/s for the first, over 1000 ×10⁻⁶ cm/s for the second.

Going from `CCOC(=O)N1CCN(C(=O)Cn2sc3nc(C)cc(C)c3c2=O)CC1` to `CCCCN1CCC[C@H]1CNC(=O)c1cc(C#N)c2ccccc2c1OC`, the Papp rises from 47.1 ×10⁻⁶ cm/s to over 1000 ×10⁻⁶ cm/s.

Going from `Nc1ccc(S(=O)(=O)Nc2cnccc2C(=O)Nc2nc(-c3ccccc3)cs2)cc1` to `CCOc1ccc(CCNC(=O)c2cc3ccccc3n2Cc2cccc(C)n2)cc1OCC`, the Papp rises from 101 ×10⁻⁶ cm/s to over 1000 ×10⁻⁶ cm/s.

Going from `NC(=O)C1CCN(c2nc(-c3ccc(Cl)cc3)cs2)CC1` to `CNc1nc2c(s1)C(c1ccc(Cl)cc1)CC(=O)N2` (stereo not drawn), the Papp rises from 191 ×10⁻⁶ cm/s to 308 ×10⁻⁶ cm/s (1.6-fold).

Compared with `O=c1c2ccccc2nc2n1CCC2`, `COC[C@@H]1CN(C(=O)c2n[nH]c3ccccc23)C[C@H]1c1nc(C)no1` is 1.5-fold higher in Papp: 44.2 ×10⁻⁶ cm/s for the first, 66.8 ×10⁻⁶ cm/s for the second.

`CN(C(=O)c1cn2c(-c3ccc(C(F)(F)F)cc3)cnc2cn1)c1ccc(C#N)cc1` gave a Papp of 874 ×10⁻⁶ cm/s.
